Test [1] concerns the target T1, VANILREP1 (Homo sapiens, UniProt Q8NER1, K571I/M315I/M572C).
T1 construct: expressed in transfected cells; host or cells: Xenopus laevis oocytes (nuclear injection of cDNA)
Nature of the test: Two-electrode voltage-clamp recordings in Xenopus laevis oocytes injected with VANILREP1 cDNA. The class given is cell-based. As for the experimental part: (§1) Xenopus laevis oocyte removal and dissociation were performed. Injections of cDNA for […]1 were made into the nuclei of defolliculated oocytes (1.5ng cDNA/oocyte). After injection the oocytes were incubated between 19-22° C. in modified Barth's solution (MBS) plus gentamycin (0.1mg/ml, pH 7.4) and used for electrophysiological recordings within 2-4 days.
(§2) For electrophysiological recordings oocytes were placed in a recording chamber and continuously perfused with a solution containing in mM: NaCl 88, KCI 1, NaHCO3 2.4, HEPES 15, MgCI2 1, BaCI2 0.1. (14 ml min^−1). Solution was applied using large bore tubing (internal diameter 1.5mm) which facilitated rapid solution exchange half-time 350 -1000 ms). Oocytes were held under voltage clamp at −60mV using the two-electrode voltage-clamp technique. Electrodes were low resistance (0.5-3 MΩ) and were filled with 3 M KCI.
(§3) Currents were evoked in response to application of capsaicin applied through the perfusion system until the maximum current amplitude was reached.
(In general: In two-electrode clamp one electrode senses voltage and the other passes current.)

Test [2] addresses T2, VANILREP1 (Homo sapiens, UniProt Q8NER1).
T2 construct: expressed in transfected cells; host or cells: Xenopus laevis oocytes (nuclear injection of cDNA)
Described as above. The class given is cell-based. Conditions: oocytes expressing VANILREP1, held at −60mV; capsaicin over a range of concentrations; FIG. 1. On the procedure:
as §1, §2, §3

T1 sequence (Q8NER1 whole entry M315I/K571I/M572C): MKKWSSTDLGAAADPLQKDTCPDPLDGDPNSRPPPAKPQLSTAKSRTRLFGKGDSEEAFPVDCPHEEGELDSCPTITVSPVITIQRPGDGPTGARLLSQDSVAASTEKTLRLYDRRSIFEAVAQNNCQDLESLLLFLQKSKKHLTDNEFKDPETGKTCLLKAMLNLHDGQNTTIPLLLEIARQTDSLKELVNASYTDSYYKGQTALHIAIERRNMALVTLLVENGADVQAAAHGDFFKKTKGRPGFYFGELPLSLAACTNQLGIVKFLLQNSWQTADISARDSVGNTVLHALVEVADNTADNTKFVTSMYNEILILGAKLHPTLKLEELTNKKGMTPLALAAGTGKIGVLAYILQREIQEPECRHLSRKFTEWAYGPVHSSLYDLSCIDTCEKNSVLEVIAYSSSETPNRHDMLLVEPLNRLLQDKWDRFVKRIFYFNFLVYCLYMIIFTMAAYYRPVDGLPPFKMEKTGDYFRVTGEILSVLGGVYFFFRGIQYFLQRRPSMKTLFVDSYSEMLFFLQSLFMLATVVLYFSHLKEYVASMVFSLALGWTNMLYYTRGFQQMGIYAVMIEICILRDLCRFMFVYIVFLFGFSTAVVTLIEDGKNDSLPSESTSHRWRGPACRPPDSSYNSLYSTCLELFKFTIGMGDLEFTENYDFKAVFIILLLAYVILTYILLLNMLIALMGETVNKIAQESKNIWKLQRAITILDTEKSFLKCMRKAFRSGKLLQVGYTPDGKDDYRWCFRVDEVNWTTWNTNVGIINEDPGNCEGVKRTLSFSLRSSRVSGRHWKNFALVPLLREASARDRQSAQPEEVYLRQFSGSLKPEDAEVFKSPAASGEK
T2 sequence (Q8NER1 whole entry M315I/K571I/M572C): as above

For `Oc1cc2c(cc1O)CN(C(=S)NCCc1ccc(Cl)cc1)CCC2` [capsazepine], the “inhibition of the capsaicin evoked response” value in test [1] (capsazepine 10uM against capsaicin 1uM, oocytes expressing VANILREP1, FIG. 2) is “inhibition”. Also, the “reversibility of the inhibition of the capsaicin evoked response” value in test [1] (capsazepine 10uM, capsaicin 1uM, extended washing) is on record as “reversible with extended washing”.
Turning to `COc1cc(CNC(=O)CCCC/C=C/C(C)C)ccc1O` [capsaicin], the “currents evoked in response to application of capsaicin” value in test [2] is “currents evoked”.

These data come from patent US20010047090A1, “VANILREP1 polynucleotides and VANILREP1 polypeptides” (priority 1998, published 2001).
